Values after ≈ are worked out from the molar mass of the structure shown. Values joined by “and” are separate entries in the source; they are usually repeats but may differ in a detail not shown here. Identical values can stand only once. Counter-ions that a name gives are not always drawn.
Key:
[1] = tested on: lymphocytic leukemia P388; test: Lymphocytic leukemia P388 test (survival of transplanted mice); type: in vivo
Method: Lymphocytic leukemia P388 test
The animals used are mice, all of one sex, weighing a minimum of 18 g. and all within a 3 gram weight range. There are 5 or 6 animals per test group. The tumor transplant is by intraperitoneal injection of 0.1 ml. or 0.5 ml. of dilute ascitic fluid containing 10^6 cells of lymphocytic leukemia p388. The test compounds are administered intraperitoneally on days one, 5 and 9 (relative to tumor inoculation) at various doses. The animals are weighed and survivors are recorded on a regular basis for 60 days. The median survival time and the ratio of survival time for treated (T)/control (C) animals are calculated. The positive control compound is 5-fluorouracil given as an intraperitoneal injection on days one, 5 and 9. […] The criterion for efficacy is T/C×100≥125%.

[2] = tested on: Staphylococcus aureus St. Paul (NYC 78-1); test: Antibacterial spectrum, agar-dilution streak-plate technique; type: cell-based; conditions: 37° C., 18 hours, read-out: Minimal Inhibitory Concentration
Method: (§1) The antibacterial spectrum, in terms of the concentration required to inhibit the growth of various typical bacteria, was determined in a standard manner by the agar-dilution streak-plate technique. A Steers multiple inocula replicator was used with incubation at 37° C. for 18 hours in Mueller-Ninton agar. The results for typical compounds of this invention are set forth in Table III below as the minimal inhibitory concentration in micrograms per milliliter.

[3] = tested on: Staphylococcus aureus OSU 75-2; test: as above; type: cell-based; conditions: OSU752, 37° C., 18 hours, read-out: Minimal Inhibitory Concentration
Method: as §1

[4] = tested on: Staphylococcus aureus Q 74-11; test: as above; type: cell-based; conditions: 37° C.; for MIC: Staphylococcus aureus, Q7411, 18 h, read-out: Minimal Inhibitory Concentration
Method: as §1

[5] = tested on: Enterococcus SM 77-15; test: as above; type: cell-based; conditions: SM7715, 37° C., 18 hours, read-out: Minimal Inhibitory Concentration
Method: as §1

[6] = tested on: melanotic melanoma B16; test: Melanotic Melanoma B16 test (survival of transplanted mice); type: in vivo, C57BC/6 mice
Method: The animals used are C57BC/6 mice, all of the same sex, weighing a minimum of 17 g. and all within a 3 g. weight range. There are normally 10 animals per test group. A one-gram portion of melanotic melanoma B16 tumor is homogenized in 10 ml. of cold balanced salt solution and a 0.5 ml. aliquot of the homogenate is implanted intraperitoneally into each of the test mice. The test compounds are administered intraperitoneally on days one through 9 (relative to tumor inoculation) at various doses. The animals are weighed and survivors are recorded on a regular basis for 60 days. The median survival time and the ratio of survival time for treated (T)/control (C) animals are calculated. The positive control compound is 5-fluorouracil given as a 20 mg./kg. injection. The results of this test with representative compounds of the present invention appear in Table II below. The criterion for efficacy is T/C×100≥125%.

[7] = 3.12 mg./kg., i.p. days 1, 5 and 9
[8] = 3.12 mg./kg., i.p. days 1, 5 and 9, efficacy criterion ≥125%
[9] = 6.25 mg./kg., i.p. days 1, 5 and 9
[10] = 6.25 mg./kg., i.p. days 1, 5 and 9, efficacy criterion ≥125%
[11] = 12.5 mg./kg., i.p. days 1, 5 and 9
[12] = 12.5 mg./kg., i.p. days 1, 5 and 9, efficacy criterion ≥125%
[13] = 25 mg./kg., i.p. days 1, 5 and 9
[14] = 25 mg./kg., i.p. days 1, 5 and 9, efficacy criterion ≥125%
[15] = 50 mg./kg., i.p. days 1, 5 and 9
[16] = 50 mg./kg., i.p. days 1, 5 and 9, efficacy criterion ≥125%
[17] = 40 mg./kg., i.p. days 1, 5 and 9 (positive control)
[18] = 60 mg./kg., i.p. days 1, 5 and 9 (positive control)
[19] = 20 mg./kg. injection (positive control)
[20] = 3 mg./kg., i.p. days one through 9
[21] = 3 mg./kg., i.p. days one through 9, efficacy criterion ≥125%
[22] = 6 mg./kg., i.p. days one through 9
[23] = 6 mg./kg., i.p. days one through 9, efficacy criterion ≥125%
[24] = 12 mg./kg., i.p. days one through 9
[25] = 12 mg./kg., i.p. days one through 9, efficacy criterion ≥125%
[26] = 1.5 mg./kg., i.p. days one through 9
[27] = 1.5 mg./kg., i.p. days one through 9, efficacy criterion ≥125%

SMILES | Median Survival [1, 7] | T/C × 100 [1, 8] | Median Survival [1, 9] | T/C × 100 [1, 10] | Median Survival [1, 11] | T/C × 100 [1, 12] | Median Survival [1, 13] | T/C × 100 [1, 14] | Median Survival [1, 15] | T/C × 100 [1, 16] | Median Survival [6, 20] | T/C × 100 [6, 21] | Median Survival [6, 22] | T/C × 100 [6, 23] | Median Survival [6, 24] | T/C × 100 [6, 25] | further results
Clc1ccc2c(c1)C(C=NNC1=NCCN1)c1ccccc1C2C=NNC1=NCCN1 (centres unmarked) [2-Chloro-bis(2-imidazolin-2-ylhydrazone)-9,10-dihydro-9,10-anthracenedicarboxaldehyde dihydrochloride] | 17.5 days | 175% | 18.5 days | 185% | 18.0 days | 180% | 18.0 days | 180% | 20.0 days | 200% | – | – | – | – | – | – | –
C(=NNC1=NCCN1)C1c2ccccc2C(C=NNC2=NCCN2)c2ccccc21 (centres unmarked) [Bis(2-imidazolin-2-ylhydrazone)-9,10-dihydro-9,10-anthracenedicarboxaldehyde] | 14 days | 127% | 16.5 days | 150% | 16.5 days | 150% | 17.5 days | 159% | 20 days | 182% | – | – | – | – | – | – | Median Survival ([1]; 100 mg./kg., i.p. days 1, 5 and 9): 19.5 days; T/C × 100 ([1]; 100 mg./kg., i.p. days 1, 5 and 9, efficacy criterion ≥125%): 177%; Median Survival ([1]; 200 mg./kg., i.p. days 1, 5 and 9): 23 days; Median Survival ([1]; 400 mg./kg., i.p. days 1, 5 and 9): 25 days; T/C × 100 ([1]; 400 mg./kg., i.p. days 1, 5 and 9, efficacy criterion ≥125%): 227%; T/C × 100 ([1]; mouse, in vivo, ip): 209; MIC [2]: 64 µg/mL (≈ 160 µM); MIC [3]: 128 µg/mL (≈ 320 µM); MIC [4]: 32 µg/mL (≈ 79.9 µM); MIC [5]: 16 µg/mL (≈ 40 µM)
O=c1[nH]cc(F)c(=O)[nH]1 [5-Fluorouracil, reference compound] | – | – | – | – | – | – | – | – | – | – | – | – | – | – | – | – | Median Survival [1, 17]: 19.0 days and 18 days; T/C × 100 [1, 17]: 181% and 164%; Median Survival [1, 18]: 15.0 days and 18.5 days; T/C × 100 [1, 18]: 158% and 185%; T/C × 100 ([1]; mouse, in vivo, ip): 158; Median Survival [6, 19]: 30 days and 28.5 days; T/C × 100 [6, 19]: 187% and 168%
Clc1cccc2c1C(C=NNC1=NCCN1)c1ccccc1C2C=NNC1=NCCN1 (centres unmarked) [1-Chloro-bis(2-imidazolin-2-ylhydrazone)-9,10-dihydro-9,10-anthracenedicarboxaldehyde dihydrochloride] | 15.5 days | 163% | 16.5 days | 174% | 19.5 days | 205% | 21.0 days | 221% | – | – | 22.0 days | 129% | 25.5 days | 150% | 31.0 days | 182% | –
Cc1ccc2c(c1)C(C=NNC1=NCCN1)c1ccccc1C2C=NNC1=NCCN1 (centres unmarked) [2-Methyl-bis(2-imidazolin-2-ylhydrazone)-9,10-dihydro-9,10-anthracenedicarboxaldehyde dihydrochloride] | 13.5 days | 142% | 14.5 days | 153% | 16.0 days | 168% | 16.0 days | 168% | 19.0 days | 200% | 25.0 days | 147% | 28.0 days | 165% | 33.5 days | 197% | Median Survival [6, 26]: 24.0 days; T/C × 100 [6, 27]: 141%
C(=NNC1=NCCN1)C1c2ccccc2C(C=NNC2=NCCN2)c2ccccc21 (centres unmarked) [Bis(2-imidazolin-2-ylhydrazone)-9,10-dihydro-9,10-anthracenedicarboxaldehyde dihydrochloride] | – | – | – | 129% | – | 152% | – | – | – | – | 22.0 days | 138% | 25.0 days | 156% | 32.0 days | 200% | Median Survival ([1]; 6.25 mg./kg., i.p. days 1, 5 and 9, dihydrochloride): 13 days; Median Survival ([1]; 12.5 mg./kg., i.p. days 1, 5 and 9, dihydrochloride): 16 days; Median Survival [6, 26]: 21.0 days; T/C × 100 [6, 27]: 131%
COc1ccc(OC)c2c1C(C=NNC1=NCCN1)c1ccccc1C2C=NNC1=NCCN1 (centres unmarked) [Bis-(2-imidazolin-2-ylhydrazone)-1,4-dimethoxy-9,10-dihydro-9,10-anthracenedicarboxaldehyde dihydrochloride] | – | – | – | – | – | – | – | – | – | – | – | – | – | – | – | – | Minimal Inhibitory Concentration ([4]; 18 hours, dihydrochloride): 128 µg/mL
COc1ccc(OC)c2c1C(C=NNC1=NCCN1)c1ccccc1C2C=NNC1=NCCN1 (centres unmarked) [1,4-Dimethoxy-bis-(2-imidazolin-2-ylhydrazone)-9,10-dihydro-9,10-anthracenedicarboxaldehyde] | – | – | – | – | – | – | – | – | – | – | – | – | – | – | – | – | MIC [2]: 128 µg/mL (≈ 278 µM); MIC [3]: 128 µg/mL (≈ 278 µM); MIC [4]: 64 µg/mL (≈ 139 µM); MIC [5]: 256 µg/mL (≈ 556 µM)

— patent US4235996A, “Bis(2-imida zolin-2-ylhydrazone)-9,10-dihydro-9,10-anthracenedicarboxaldehydes” (American Cyanamid Company, priority 1978, dated 1980)
